IC50 data for 31 molecules are collected here from patent US7566712B2, “Biaryl piperazinyl-pyridine analogues” (Neurogen Corporation, priority 2003, dated 2009).

The term IC50 denotes the midpoint of a concentration-inhibition curve.

This test deals with T1, human capsaicin receptor (Homo sapiens, UniProt Q8NER1).
T1 construct: pBK-CMV expression construct encoding the full length human capsaicin receptor; expressed in transfected cells
Briefly: Calcium mobilization assay, determination of antagonist activity (Example 6). Particulars: Table II; IC50 determined as described in Example 6. Format: cell-based. The procedure, abridged:
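Antagonism measured as inhibition of capsaicin-evoked (final concentration = EC50, from an 8-point 1 nM–3 μM curve) Fluo-3 calcium signal in stable hVR1-HEK293 cells. Test compounds at 1–5 μM final, 0.5–6 h dark preincubation at room temperature. IC50 = concentration giving 50% reduction versus agonist-only response.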
For orientation: Calcium flux is commonly read through the fluorescence of an indicator in the cells.

T1 sequence (Q8NER1 whole entry): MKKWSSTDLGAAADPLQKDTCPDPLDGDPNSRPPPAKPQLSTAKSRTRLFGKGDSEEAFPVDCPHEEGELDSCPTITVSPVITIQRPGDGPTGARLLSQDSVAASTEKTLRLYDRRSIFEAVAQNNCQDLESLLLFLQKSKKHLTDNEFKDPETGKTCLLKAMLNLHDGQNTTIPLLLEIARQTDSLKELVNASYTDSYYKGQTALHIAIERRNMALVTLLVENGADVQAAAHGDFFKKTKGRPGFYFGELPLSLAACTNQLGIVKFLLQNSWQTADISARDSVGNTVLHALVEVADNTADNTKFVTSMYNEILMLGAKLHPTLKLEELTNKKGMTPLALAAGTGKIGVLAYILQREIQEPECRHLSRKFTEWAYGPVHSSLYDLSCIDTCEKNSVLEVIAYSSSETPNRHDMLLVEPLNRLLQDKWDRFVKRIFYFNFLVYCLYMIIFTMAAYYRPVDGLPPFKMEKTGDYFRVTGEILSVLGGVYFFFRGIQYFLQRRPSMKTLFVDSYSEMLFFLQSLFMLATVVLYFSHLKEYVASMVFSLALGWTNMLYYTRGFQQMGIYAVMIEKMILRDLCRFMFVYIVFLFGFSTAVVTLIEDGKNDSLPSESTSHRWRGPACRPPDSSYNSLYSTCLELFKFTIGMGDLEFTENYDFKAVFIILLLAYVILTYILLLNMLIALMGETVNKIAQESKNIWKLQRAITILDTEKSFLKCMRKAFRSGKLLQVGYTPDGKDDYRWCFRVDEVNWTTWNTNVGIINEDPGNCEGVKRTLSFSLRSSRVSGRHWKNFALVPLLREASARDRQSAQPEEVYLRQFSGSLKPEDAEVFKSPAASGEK

Turning to `C[C@@H]1CN(c2ncccc2Cl)CCN1c1cc(-c2ccc3ccccc3c2)nc(N2CCOCC2)n1` [Example 492, 4-[4-[(2R)-4-(3-chloropyridin-2-yl)-2-methylpiperazin-1-yl]-6-(2-naphthyl)pyrimidin-2-yl]morpholine], the IC50 was at most 1000 nM.
Under `Cc1ccc(-c2cc(N3CCN(c4ncccc4C#N)C[C@H]3C)nc(N3CCOCC3)n2)cc1F` [Example 493, 2-{(3R)-4-[6-(3-fluoro-4-methylphenyl)-2-morpholin-4-ylpyrimidin-4-yl]-3-methylpiperazin-1-yl}nicotinonitrile] stands at most 1000 nM.
Under `Cc1ccc(-c2cc(N3CCN(c4ncccc4C)C[C@H]3C)nc(N3CCOCC3)n2)cc1F` [Example 494, 4-{4-(3-fluoro-4-methylphenyl)-6-[(2R)-2-methyl-4-(3-methylpyridin-2-yl)piperazin-1-yl]pyrimidin-2-yl}morpholine] stands at most 1000 nM.
Take `Cc1ccc(-c2cc(N3CCN(c4ncccc4C(F)(F)F)C[C@H]3C)nc(N3CCOCC3)n2)cc1F` [Example 495, 4-(4-(3-fluoro-4-methylphenyl)-6-{(2R)-2-methyl-4-[3-(trifluoromethyl)pyridin-2-yl]piperazin-1-yl}pyrimidin-2-yl)morpholine]: the IC50 is at most 1000 nM.
The same measure for `Cc1ccc(-c2cc(N3CCN(c4ncccc4Cl)C[C@H]3C)nc(N3CCOCC3)n2)cc1F` [Example 496, 4-[4-[(2R)-4-(3-chloropyridin-2-yl)-2-methylpiperazin-1-yl]-6-(3-fluoro-4-methylphenyl)pyrimidin-2-yl]morpholine]: at most 1000 nM.
Under `Cc1cc(-c2cc(N3CCN(c4ncccc4C(F)(F)F)C[C@H]3C)nc(N3CCOCC3)n2)ccc1F` [Example 497, 4-(4-(4-fluoro-3-methylphenyl)-6-{(2R)-2-methyl-4-[3-(trifluoromethyl)pyridin-2-yl]piperazin-1-yl}pyrimidin-2-yl)morpholine] stands at most 1000 nM; under `Cc1cc(-c2cc(N3CCN(c4ncccc4Cl)C[C@H]3C)nc(N3CCOCC3)n2)ccc1F` [Example 498, 4-[4-[(2R)-4-(3-chloropyridin-2-yl)-2-methylpiperazin-1-yl]-6-(4-fluoro-3-methytphenyl)pyrimidin-2-yl]morpholine], at most 1000 nM; under `CC(C)c1cccc(-c2cc(N3CCN(c4ncccc4C#N)C[C@H]3C)nc(N3CCOCC3)n2)c1` [Example 499, 2-{(3R)-4-[6-(3-isopropylphenyl)-2-morpholin-4-ylpyrimidin-4-yl]-3-methylpiperazin-1-yl}nicotinonitrile], at most 1000 nM.
The same measure for `Cc1cccnc1N1CCN(c2cc(-c3cccc(C(C)C)c3)nc(N3CCOCC3)n2)[C@H](C)C1` [Example 500, 4-{4-(3-isopropylphenyl)-6-[(2R)-2-methyl-4-(3-methylpyridin-2-yl)piperazin-1-yl]pyrimidin-2-yl}morpholine]: at most 1000 nM.
With `CC(C)c1cccc(-c2cc(N3CCN(c4ncccc4C(F)(F)F)C[C@H]3C)nc(N3CCOCC3)n2)c1` [Example 501, 4-(4-(3-isopropylphenyl)-6-{(2R)-2-methyl-4-[3-(trifluoromethyl)pyridin-2-yl]piperazin-1-yl}pyrimidin-2-yl)morpholine], the IC50 is at most 1000 nM.
In the case of `CC(C)c1cccc(-c2cc(N3CCN(c4ncccc4Cl)C[C@H]3C)nc(N3CCOCC3)n2)c1` [Example 502, 4-[4-[(2R)-4-(3-chloropyridin-2-yl)-2-methylpiperazin-1-yl]-6-(3-isopropylphenyl)pyrimidin-2-yl]morpholine], the IC50 is at most 1000 nM.
Take `CC(C)c1ccc(-c2cc(N3CCN(c4ncccc4C#N)C[C@H]3C)nc(N3CCOCC3)n2)cc1` [Example 503, 2-{(3R)-4-[6-(4-isopropylphenyl)-2-morpholin-4-ylpyrimidin-4-yl]-3-methylpiperazin-1-yl}nicotinonitrile]: the IC50 is at most 1000 nM.
With `Cc1cccnc1N1CCN(c2cc(-c3ccc(C(C)C)cc3)nc(N3CCOCC3)n2)[C@H](C)C1` [Example 504, 4-{4-(4-isopropylphenyl)-6-[(2R)-2-methyl-4-(3-methylpyridin-2-yl)piperazin-1-yl]pyrimidin-2-yl}morpholine], the IC50 was at most 1000 nM.
For `CC(C)c1ccc(-c2cc(N3CCN(c4ncccc4Cl)C[C@H]3C)nc(N3CCOCC3)n2)cc1` [Example 505, 4-[4-[(2R)-4-(3-chloropyridin-2-yl)-2-methylpiperazin-1-yl]-6-(4-isopropylphenyl)pyrimidin-2-yl]morpholine], the half-inhibitory concentration (IC50) is at most 1000 nM.
Consider `Cc1ccc(-c2cc(N3CCN(c4ncccc4C#N)C[C@H]3C)nc(N3CCOCC3)n2)cc1C` [Example 506, 2-{(3R)-4-[6-(3,4-dimethylphenyl)-2-morpholin-4-ylpyrimidin-4-yl]-3-methylpiperazin-1-yl}nicotinonitrile], for which the IC50 was at most 1000 nM.
In the case of `Cc1ccc(-c2cc(N3CCN(c4ncccc4C)C[C@H]3C)nc(N3CCOCC3)n2)cc1C` [Example 507, 4-[4-(3,4-dimethylphenyl)-6-[(2R)-2-methyl-4-(3-methylpyridin-2-yl)piperazin-1-yl]pyrimidin-2-yl}morpholine], the IC50 is at most 1000 nM.
Under `Cc1ccc(-c2cc(N3CCN(c4ncccc4Cl)C[C@H]3C)nc(N3CCOCC3)n2)cc1C` [Example 508, 4-[4-[(2R)-4-(3-chloropyridin-2-yl)-2-methylpiperazin-1-yl]-6-(3,4-dimethylphenyl)pyrimidin-2-yl]morpholine] stands at most 1000 nM.
For the molecule `CCc1ccc(-c2cc(N3CCN(c4ncccc4C#N)C[C@H]3C)nc(N3CCOCC3)n2)cc1` [Example 509, 2-{(3R)-4-[6-(4-ethylphenyl)-2-morpholin-4-ylpyrimidin-4-yl]-3-methylpiperazin-1-yl}nicotinonitrile], the IC50 is at most 1000 nM.
The same measure for `CCc1ccc(-c2cc(N3CCN(c4ncccc4C)C[C@H]3C)nc(N3CCOCC3)n2)cc1` [Example 510, 4-{4-(4-ethylphenyl)-6-[(2R)-2-methyl-4-(3-methylpyridin-2-yl)piperazin-1-yl]pyrimidin-2-yl}morpholine]: at most 1000 nM; for `CCc1ccc(-c2cc(N3CCN(c4ncccc4Cl)C[C@H]3C)nc(N3CCOCC3)n2)cc1` [Example 511, 4-[4-[(2R)-4-(3-chloropyridin-2-yl)-2-methylpiperazin-1-yl]-6-(4-ethylphenyl)pyrimidin-2-yl]morpholine]: at most 1000 nM; for `CCCc1ccc(-c2cc(N3CCN(c4ncccc4C#N)C[C@H]3C)nc(N3CCOCC3)n2)cc1` [Example 512, 2-{(3R)-3-methyl-4-[2-morpholin-4-yl-6-(4-propylphenyl)pyrimidin-4-yl]piperazin-1-yl}nicotinonitrile]: at most 1000 nM.
Turning to `CCCc1ccc(-c2cc(N3CCN(c4ncccc4Cl)C[C@H]3C)nc(N3CCOCC3)n2)cc1` [Example 513, 4-[4-[(2R)-4-(3-chloropyridin-2-yl)-2-methylpiperazin-1-yl]-6-(4-propylphenyl)pyrimidin-2-yl]morpholine], the IC50 is at most 1000 nM.
The same measure for `CCc1cccc(-c2cc(N3CCN(c4ncccc4C#N)C[C@H]3C)nc(N3CCOCC3)n2)c1` [Example 514, 2-{(3R)-4-[6-(3-ethylphenyl)-2-morpholin-4-ylpyrimidin-4-yl]-3-methylpiperazin-1-yl}nicotinonitrile]: at most 1000 nM; for `CCc1cccc(-c2cc(N3CCN(c4ncccc4C)C[C@H]3C)nc(N3CCOCC3)n2)c1` [Example 515, 4-{4-(3-ethylphenyl)-6-[(2R)-2-methyl-4-(3-methylpyridin-2-yl)piperazin-1-yl]pyrimidin-2-yl}morpholine]: at most 1000 nM.
As to `CCc1cccc(-c2cc(N3CCN(c4ncccc4C(F)(F)F)C[C@H]3C)nc(N3CCOCC3)n2)c1` [Example 516, 4-(4-(3-ethylphenyl)-6-{(2R)-2-methyl-4-[3-(trifluoromethyl)pyridin-2-yl]piperazin-1-yl}pyrimidin-2-yl)morpholine], the 50% inhibitory concentration (IC50) was at most 1000 nM.
Take `CCc1cccc(-c2cc(N3CCN(c4ncccc4Cl)C[C@H]3C)nc(N3CCOCC3)n2)c1` [Example 517, 4-[4-[(2R)-4-(3-chloropyridin-2-yl)-2-methylpiperazin-1-yl]-6-(3-ethylphenyl)pyrimidin-2-yl]morpholine]: the half-inhibitory concentration (IC50) was at most 1000 nM.
Regarding `C[C@@H]1CN(c2ncccc2C#N)CCN1c1cc(-c2ccc(C(C)(C)C)cc2)nc(N2CCOCC2)n1` [Example 518, 2-{(3R)-4-[6-(4-tert-butylphenyl)-2-morpholin-4-ylpyrimidin-4-yl]-3-methylpiperazin-1-yl}nicotinonitrile], the IC50 is at most 1000 nM.
The same measure for `C[C@@H]1CN(c2ncccc2C(F)(F)F)CCN1c1cc(-c2ccc(C(C)(C)C)cc2)nc(N2CCOCC2)n1` [Example 519, 4-(4-(4-tert-butylphenyl)-6-{(2R)-2-methyl-4-[3-(trifluoromethyl)pyridin-2-yl]piperazin-1-yl}pyrimidin-2-yl)morpholine]: at most 1000 nM.
For `C[C@@H]1CN(c2ncccc2Cl)CCN1c1cc(-c2ccc(C(C)(C)C)cc2)nc(N2CCOCC2)n1` [Example 520, 4-{4-(4-tert-butylphenyl)-6-[(2R)-4-(3-chloropyridin-2-yl)-2-methylpiperazin-1-yl]pyrimidin-2-yl}morpholine], the IC50 was at most 1000 nM.
Under `Cc1cccnc1N1CCN(c2cc(-c3cccc4ccccc34)nc(N3CCOCC3)n2)[C@H](C)C1` [Example 521, 4-[4-[(2R)-2-methyl-4-(3-methylpyridin-2-yl)piperazin-1-yl]-6-(1-naphthyl)pyrimidin-2-yl]morpholine] stands at most 1000 nM; under `Cc1cccnc1N1CCN(c2cc(-c3ccc(C)c4ccccc34)nc(N3CCOCC3)n2)[C@H](C)C1` [Example 522, 4-[4-[(2R)-2-methyl-4-(3-methylpyridin-2-yl)piperazin-1-yl]-6-(4-methyl-1-naphthyl)pyrimidin-2-yl]morpholine], at most 1000 nM.
